Reference: US20230348473A1, “SUBSTITUTED PYRIDINES AS PARP1 INHIBITORS” (Xinthera, Inc., priority 2022, published 2023)
Blank lines part the entries; values can stand above or below the compound they belong to.

Assays:
PARP2 = PARP2 (Homo sapiens (Human), UniProt Q9UGN5); test: Biochemical fluorescence polarization (FP) assay, PARPi-FL displacement, PARP2; type: binding; conditions: 20 nM protein, 3 nM PARPi-FL, 4 h
Description: (§1) To characterize our compounds, we utilized an assay measuring the displacement of a commercially available fluorescently labeled PARP 1/2 inhibitor (PARPi-FL, Tocris Biosciences, #6461) as exemplified in assays performed in WO2014/064149 and WO2021/013735A1. The assay was performed utilizing the following method: Compounds were dissolved in DMSO an Echo550 liquid handler was utilized to make serial dilations in the desired concentration range in Optiplate-384F plates. 100% DMSO was used for the high (with protein) and low (without protein) control samples. 20 nL of compound or DMSO alone was added to individual assay plate wells. […] The PARPi-FL was then added at a final concentration of 3 nM. The assay plate is centrifuged at 1000 rpm for 1 min and incubated for 4 h at room temperature. […] XLFit (equation 201) is used to calculate a reported IC50 for each compound.

PARP1 = PARP1 (Homo sapiens (Human), UniProt P09874); test: Biochemical fluorescence polarization (FP) assay, PARPi-FL displacement, PARP1; type: binding; conditions: 20 nM protein, 3 nM PARPi-FL, 4 h
Sequence of PARP1 (P09874 whole entry): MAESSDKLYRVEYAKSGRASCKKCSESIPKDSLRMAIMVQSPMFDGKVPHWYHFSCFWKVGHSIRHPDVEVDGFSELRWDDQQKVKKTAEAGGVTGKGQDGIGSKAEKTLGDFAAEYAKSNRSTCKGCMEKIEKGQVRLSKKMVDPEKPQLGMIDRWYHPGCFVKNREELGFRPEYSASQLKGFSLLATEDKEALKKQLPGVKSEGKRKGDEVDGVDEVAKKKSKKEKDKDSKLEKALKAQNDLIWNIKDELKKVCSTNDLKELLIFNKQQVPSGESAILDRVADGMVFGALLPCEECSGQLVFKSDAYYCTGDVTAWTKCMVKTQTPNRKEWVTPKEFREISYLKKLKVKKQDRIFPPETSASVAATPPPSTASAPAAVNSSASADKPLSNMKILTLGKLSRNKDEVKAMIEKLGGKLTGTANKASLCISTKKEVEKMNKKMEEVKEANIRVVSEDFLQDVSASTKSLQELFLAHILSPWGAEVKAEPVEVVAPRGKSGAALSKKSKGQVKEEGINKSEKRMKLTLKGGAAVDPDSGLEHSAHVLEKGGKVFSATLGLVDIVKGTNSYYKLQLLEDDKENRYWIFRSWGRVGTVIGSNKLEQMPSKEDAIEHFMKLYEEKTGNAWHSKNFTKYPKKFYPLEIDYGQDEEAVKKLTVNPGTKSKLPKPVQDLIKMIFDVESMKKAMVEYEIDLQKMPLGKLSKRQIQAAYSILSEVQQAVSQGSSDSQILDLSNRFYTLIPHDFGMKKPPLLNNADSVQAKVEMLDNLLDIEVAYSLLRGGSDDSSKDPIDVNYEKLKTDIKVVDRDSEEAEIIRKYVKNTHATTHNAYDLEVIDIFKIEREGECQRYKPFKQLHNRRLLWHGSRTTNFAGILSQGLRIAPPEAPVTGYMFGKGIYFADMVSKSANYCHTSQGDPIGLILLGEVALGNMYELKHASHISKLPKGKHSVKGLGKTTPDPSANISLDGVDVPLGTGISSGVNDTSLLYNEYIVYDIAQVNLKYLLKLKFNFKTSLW
Description: as §1

[1] = In vivo determination of rat Kp,uu; conditions: male Sprague-Dawley rats, oral gavage, Kp*(fraction unbound in brain homogenate/fraction unbound in plasma)
Description: The equilibrium dialysis method was used to investigate the in vitro binding of test articles and reference compounds to plasma proteins. Plasma samples containing 5 μM test article or blank dialysis buffer solution (PBS, pH 7.4) were added to separate chambers of the dialysis wells of the High Throughput equilibrium Dialysis (HTD) device. The dialysis plate was sealed and placed in an incubator at 37° C. with 5% CO2 with shaking at approximately 100 rpm for 6 hours. All experiments were performed in duplicable. Ketoconazole (5 μM) was used as the reference compound. After incubation, the seal was removed, and 50 μL of post-dialysis samples were pipetted from both buffer and plasma chambers into fresh 96-well plates. Samples were equimatrilyzed by either addition of blank plasma to buffer samples or the addition of blank buffer to plasma samples. Subsequently, 400 μL (4 volumes) of acetonitrile containing internal were added to all samples to precipitate proteins prior to analysis by UPLC-MS/MS to determine the relative concentrations of test articles. The unbound fractions in plasma were calculated using the concentrations of test articles in buffer and plasma samples according to the following equation: […]
The equilibrium dialysis method was used to investigate the in vitro binding of test articles and reference compounds to rodent brain homogenate. Brains collected from naïve animals were weighed and homogenized in 4 volumes of PBS, pH 7.4. […] The unbound fractions in diluted brain homogenate were calculated using the concentrations of test articles in buffer and homogenate samples according to the following equation: […]
Prior to bioanalysis, plasma and brain samples were extracted with 4 volumes of acetonitrile containing internal standard and centrifuged for 15 minutes. […] Plasma and brain homogenate drug concentrations were determined against calibration curves generated by spiking blank rat plasma or brain homogenate with drug across an appropriate concentration range. […]

[2] = HLM metabolic stability, predicted human hepatic clearance; type: in vitro ADME; conditions: well-stirred model, 1 μM
Description: Working stocks of individual test articles were prepared at a concentration of 100 μM by diluting 10 mM stocks prepared in DMSO 100-fold (v:v) into ACN. Thawed hepatic microsomes were suspended in 100 mM potassium phosphate buffer, pH 7.4 to a microsomal protein concentration of 0.562 mg/mL. Diluted microsomes were combined with a solution of 10 mM NADPH, and the mixture was pre-warmed to 37° C. for 8 min. Reactions were initiated by addition of the test article working stocks to achieve a final test article concentration of 1 μM. Final microsomal protein and NADPH concentrations were 0.5 mg/mL and 1 mM, respectively. Incubations containing NADPH were run in duplicate. Test article losses mediated by non-CYP mechanisms were evaluated in a parallel set of incubations run in the absence of NADPH. Incubations lacking NADPH consisted of 1 replicate per test article. Following incubation in a 37° C. water bath, aliquots of individual reactions were quenched with cold ACN containing internal standards at […], 15-, 30-, 60-, 90-, and 120-min. Precipitated protein was pelleted via refrigerated centrifugation. Supernatants were diluted into an equal volume of pure water and mixed well prior to analysis via LC-MS/MS. In vitro intrinsic clearances (CLint) in μL/min/mg were determined for each incubation from calculated in vitro half-lives determined using a standard log-linear regression approach. In vitro CLint values were scaled up using the following physiological scaling factors: 40 mg microsomal protein/g human liver and 25.7 g human liver/kg body weight.

[3] = Caco-2 bidirectional permeability; type: in vitro ADME; conditions: human, 5 μM, 2 hours
Description: Following a 1-hr. equilibration period in cell culture medium maintained at 37° C. in an incubator containing a 5% CO2 atmosphere at 95% relative humidity, Corning 96-well HTS Transwell® permeable support plates were seeded with 34,300 Caco-2 cells (ATCC) per well. Following seeding, plates were cultured for 14-18 days with cell culture medium replacement every other day beginning no later than 24 hr. after plating. Monolayer barrier integrity was monitored during the culture period using transepithelial electrical resistance (TEER) measurements taken with a Millicell Epithelial Volt-Ohm system. Caco-2 monolayers were considered ready for use when the TEER value >230 ohm·cm^2. Working stocks of individual test articles were prepared at a concentration of 5 μM by diluting 1 mM stocks prepared in DMSO into 10 mM HEPES. Prior to conducting the assay, Caco-2 plates were washed twice with prewarmed 10 mM HEPES and then equilibrated in 10 mM HEPES for 30 min. at 37° C. Following equilibration, test article flux was tested bidirectionally (in both the apical-to-basolateral and basolateral-to-apical directions) by adding test article working stocks to either the apical or basolateral chambers. Blank 10 mM HEPES was added to the opposite sides. Plates were then incubated at 37° C. for 2 hours. At the end of the incubation, aliquots from both sides of each monolayer were quenched with 4 volumes of ACN containing internal standards. Following a centrifugation step, supernatants were diluted with pure water prior to analysis via LC-MS/MS.
Apparent permeability (Papp, ×10^−6 cm/s) was calculated for all transport assays using the following equation: […]
Where: Papp is apparent permeability (×10^−6 cm/s). • dQ/dt is the rate of drug transport (pmol/s). • A is the surface area of the membrane (cm^2). • D0 is the initial donor concentration (nM; pmol/cm^3).
Efflux ratio was determined by calculating the ratio of the Papp in the basolateral-to-apical direction to the Papp in the apical-to-basolateral direction using the following equation: […]
Where: Papp (B-to-A) is the apparent permeability in the basolateral-to-apical direction. • Papp (A-to-B) is the apparent permeability in the apical-to-basolateral direction.

[4] = hHEP metabolic stability, predicted human hepatic clearance; type: in vitro ADME; conditions: well-stirred model, 1 μM
Description: Working stocks of individual test articles were prepared at concentrations of 100 μM by diluting 10 mM stocks prepared in DMSO 100-fold (v:v) into ACN/H2O (50/50, v:v). Human cryopreserved hepatocytes were thawed in a 37° C. water bath in <2 min., suspended in thawing media, and then centrifuged at 100×g for 10 min. Thawing media was aspirated, and pelleted hepatocytes were resuspended into incubation media at 1.5×10^6 cells/mL. Cell viability was determined using an Acridine Orange/Propidium Iodine stain, and hepatocytes were further diluted with incubation media to 0.5×10^6 viable cells/mL. Hepatocyte aliquots of 198 μL were added to wells of a 96-well plate, and test article incubations were initiated by the addition of 2 μL of 100 μM working stocks. Plates were incubated at 37° C. in a 5% CO2 atmosphere at 95% relative humidity on an orbital shaker at 300 rpm. Incubations were performed in duplicate. Following incubation, aliquots of individual reactions were terminated by addition of ACN containing internal standards at 0, 30-, 60-, 90-, 120-, and 240-min. Precipitated protein was pelleted via refrigerated centrifugation. Supernatants were diluted into an equal volume of pure water and mixed well prior to analysis via LC-MS/MS. In vitro intrinsic clearances (CLint) in μL/min/10^6 cells were determined for each incubation from calculated in vitro half-lives determined using a standard log-linear regression approach. In vitro CLint values were scaled up using the following physiological scaling factors: 99×10^6 cells/g human liver and 25.7 g human liver/kg body weight.

DLD-1 parental cells = test: Cell growth inhibition assay (CellTiter-Glo), DLD-1 parental; type: cell-based; conditions: Homo sapiens, DLD-1, 168 h; 7 days, CellTiter Glo 2.0
From the text: The objective of this study is to evaluate the effect of compound disclosed herein on cell proliferation through the cell viability assay in DLD-1 BRCA2(−/−) and parental isogenic pair and MDA-MB-436 (mutated BRCA1) cell lines. The CellTiter-Glo (CTG) based cell viability assay is designed to determine the number of viable cells in the culture because of compound effect, by quantifying ATP, which indicates the presence of metabolically active cells.
DLD-1 BRCA2(−/−) and parental isogenic pair were cultured in RPMI 1640 supplemented with 10% fetal bovine serum (FBS), and MDA-MB-436 cells were cultured in DMEM supplemented with 10% FBS. Both are culture at 37° C. with 5% CO2. Invention compounds were distributed to the 384 well plate (Corning, 3764) using Echo acoustic liquid handler to form a 1:3 serially diluted final concentration with top dose of 10 or 30 μM. The cells were seeded into the plate in the density of 50 cells/well (DLD-1 parental), 200 cells/well (DLD-1 BRCA2−/−), or 500 cells/well (MDA-MB-436). After a short spun, the cells were cultured in a well moisturized incubator at 37° C. with 5% CO2 for 7 days without disturbance. The cell viability was measured by CellTiter Glo 2.0 assay kit (Promega, G9243), and growth inhibition rate was calculated and plotted against final compound concentration, and the data were fitted in Xfit to generate IC50.

Sequence of PARP2 (Q9UGN5 whole entry): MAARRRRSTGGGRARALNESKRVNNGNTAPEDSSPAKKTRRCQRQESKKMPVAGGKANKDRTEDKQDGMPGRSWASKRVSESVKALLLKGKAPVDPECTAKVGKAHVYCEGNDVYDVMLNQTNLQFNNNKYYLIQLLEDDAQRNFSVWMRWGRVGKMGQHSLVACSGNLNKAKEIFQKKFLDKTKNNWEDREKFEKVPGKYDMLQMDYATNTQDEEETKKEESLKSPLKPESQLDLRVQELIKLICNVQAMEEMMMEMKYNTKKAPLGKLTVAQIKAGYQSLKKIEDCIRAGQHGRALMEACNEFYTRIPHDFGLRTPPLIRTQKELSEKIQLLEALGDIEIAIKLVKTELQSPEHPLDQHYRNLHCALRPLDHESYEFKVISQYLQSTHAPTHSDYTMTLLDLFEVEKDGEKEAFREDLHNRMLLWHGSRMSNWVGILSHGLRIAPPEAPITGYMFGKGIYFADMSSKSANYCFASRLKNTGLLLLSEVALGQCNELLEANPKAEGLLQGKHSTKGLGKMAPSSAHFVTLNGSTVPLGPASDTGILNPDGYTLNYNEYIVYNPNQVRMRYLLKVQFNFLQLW

IC50 (PARP2): > 100 µM
IC50 (PARP1): 0.0081 µM
Rat Kpuu [1]: 1.0
Structure (SMILES): CNC(=O)c1ccc(N2CCN(Cc3ccc4c([nH]c(=O)c5ccnn54)c3F)CC2)c(F)n1 [Example 1, 6-fluoro-5-[4-({6-fluoro-4-oxo-5H-pyrazolo[1,5-a]quinoxalin-7-yl}methyl)piperazin-1-yl]-N-methylpyridine-2-carboxamide]

Rat Kpuu [1]: 0.65
HLM Clh [2]: <4 mL/min/kg
Papp A→B at 2 h, 5 μM ([3]; apical-to-basolateral, read-out: Caco-2 AB): 20.5 ×10⁻⁶ cm/s
Papp B→A at 2 h, 5 μM ([3]; basolateral-to-apical, read-out: Caco-2 BA): 28.1 ×10⁻⁶ cm/s
HHEP Clh [4]: <3.3 mL/min/kg
Structure (SMILES): CNC(=O)c1ccc(N2CCN(Cc3ccc4c5c(c(=O)[nH]c4c3F)CCO5)CC2)c(F)n1 [Example 9, 6-fluoro-5-[4-({6-fluoro-4-oxo-2H,3H,5H-furo[3,2-c]quinolin-7-yl}methyl)piperazin-1-yl]-N-methylpyridine-2-carboxamide]

Structure (SMILES): [2H]C([2H])([2H])NC(=O)c1ccc(N2CCN(Cc3ccc4c5c(c(=O)[nH]c4c3F)CCO5)CC2)c(F)n1 [Example 22]
EC50 (DLD-1 parental cells): > 30 µM

Rat Kpuu [1]: 0.81
Structure (SMILES): [2H]C([2H])(c1ccc2c3c(c(=O)[nH]c2c1F)CCO3)N1CCN(c2ccc(C(=O)NC)nc2F)CC1 [Example 24]
